Laboratory results reported in patent US12491170B2, “Stable treprostinil prodrugs” (United Therapeutics Corporation, priority 2020, dated 2025).
One block for each compound: values may come before it.

Assays:
PGE2 receptor 1 (EP1) = target: T1, PGE2 receptor 1 (EP1) (Homo sapiens, UniProt P34995); test: EP1 receptor calcium agonist assay (HEK293T cells); format: cell-based; conditions: Table 22, relative to treprostinil EC50 values, * partial agonists or ambiguous dose-response curves
T1 sequence (P34995 1-402): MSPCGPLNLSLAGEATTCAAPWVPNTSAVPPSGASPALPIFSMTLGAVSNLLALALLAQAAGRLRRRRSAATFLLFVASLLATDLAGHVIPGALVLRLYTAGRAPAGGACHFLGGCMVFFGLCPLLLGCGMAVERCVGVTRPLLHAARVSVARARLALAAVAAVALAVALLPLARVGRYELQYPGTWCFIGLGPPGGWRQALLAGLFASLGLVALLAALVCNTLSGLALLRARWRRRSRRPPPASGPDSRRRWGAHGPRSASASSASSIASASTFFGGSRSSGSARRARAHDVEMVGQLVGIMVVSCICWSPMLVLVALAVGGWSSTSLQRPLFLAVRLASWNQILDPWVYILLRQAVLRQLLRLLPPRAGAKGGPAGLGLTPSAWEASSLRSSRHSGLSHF
Experimental: Calcium assay kit: Multiscreen™ Calcium 1.0 No Wash Kit (Multispan, Inc., Cat #MSCA01-1)
• EP1 Calcium and DP1 cAMP Assays: HBSS plus 20 mM HEPES • EP2 and IP1 cAMP Assays: 1 mM IBMX in HBSS plus 20 mM HEPES Instruments: FlexStation III (Molecular Devices) and FLIPR 384 (Molecular Devices)
Cells were thawed from frozen cells and resuspended in assay buffer at desired concentrations. cAMP or Calcium assays were performed according to the manufacturer's protocol using Multiscreen™ TR-FRET cAMP 1.0 No Wash Assay Kit or Multiscreen™ Calcium 1.0 No Wash Kit.
Calcium Assay: Cells were seeded in a 384-well plate at an appropriate density. The calcium assay was conducted according to the manufacturer's protocols (Multiscreen Calcium 1.0 No Wash Assay Kit). The calcium dye loading buffer was added to the cells and incubated for 1 hour at 37° C. For agonist mode, cells were injected with Iloprost control agonist or test compound by FLIPR and calcium mobilization was monitored for 180 seconds with compound injected into the wells at the 19th second. Fluorescent emissions were read at 525 nm with excitation at 490 nm in a FLIPR 384 instrument (Molecular Devices).
Calcium Assay: Calcium assay results are expressed as “RFU” as defined in figure below. Data are represented in Mean±SEM. Dose-response curves were fitted using “Sigmoidal dose-response (variable slope)” function in GraphPad Prism 6. EC50 values were calculated based on the fitted curves.
Prostaglandin receptor activity assessments with treprostinil and treprostinil analogues have been conducted, and a historical, positive control agonist for these receptors, iloprost (for IP, EP2 and EP1) or PGD2 (for DP1), was also included. These studies used cell lines overexpressing either human IP, EP2 or DP1, or EP1 receptors, and following incubation with varying concentrations of compounds, cAMP levels were measured using Fluorescence Resonance Energy Transfer (FRET). The 665/620 (acceptor/donor emission signals) ratio is inversely proportional to the concentration of cAMP.

[1] = Stability in simulated intestinal fluid; format: in vitro ADME
Experimental: Studies were carried out in simulated intestinal fluid (SIF). SIF was prepared by dissolving 6.8 g of KH2PO4 in 250 mL of water, mixing, and then adding 77 mL of 0.2 N NaOH and […] of water. […] DMSO stocks were first prepared for the test articles. […] The vials were kept in a benchtop Thermomixer® for the duration of the experiment. A separate tube was dosed for each time point in each matrix. […] Samples were mixed and then immediately stored at 4° C. until the end of the experiment. After the final time point was sampled, the plate was mixed and then centrifuged at 3000 rpm for 10 minutes.

[2] = Hydrolysis of prodrugs to treprostinil at pH 6, 7, 8 and 40 C; format: physicochemical
Description: Tables 24, 25 and 26 present data for hydrolysis of selected treprostinil prodrugs at pH 6, 7 and 8, respectively, and 40 C.

[3] = dog
[4] = Plasma stability, human plasma; format: in vitro ADME
Experimental: (§1) Studies were carried out in mixed-gender human plasma male Sprague-Dawley rat plasma, and male Beagle dog plasma. All plasma was obtained from Bioreclamation and collected on K2EDTA. Plasma was adjusted to pH 7.4 prior to initiating the experiments. DMSO stocks were first prepared for the test articles. […] The vials were kept in a benchtop Thermomixer® for the duration of the experiment. […] Samples were stored at 4° C. until the end of the experiment. After the final time point was sampled, the plate was mixed and then centrifuged at 3000 rpm for 10 minutes.

[5] = Plasma stability, rat plasma; format: in vitro ADME, Sprague-Dawley rat
Experimental: as §1

[6] = Plasma stability, dog plasma; format: in vitro ADME, Beagle dog
Experimental: as §1

[7] = SIF pH 6.8 with pancreatin, 1 μM, 37° C.
[8] = SIF pH 6.8 with pancreatin, 1 μM, 37° C., 0 min
[9] = SIF pH 6.8 with pancreatin, 1 μM, 37° C., 15 min
[10] = SIF pH 6.8 with pancreatin, 1 μM, 37° C., 60 min
[11] = SIF pH 6.8 with pancreatin, 1 μM, 37° C., 120 min

Compound: CCCCCC(CCC1C(OC(=O)OC)CC2Cc3c(cccc3OCC(=O)O)CC21)OC(=O)OC (stereo not shown) [Prodrug LXXI, treprostinil dicarbonate]
Half-life [1, 7]: >2 h
Percent Remaining 0 min [1, 8]: 100%
Percent Remaining 15 min [1, 9]: 96.2%
Percent Remaining 30 min ([1]; SIF pH 6.8 with pancreatin, 1 μM, 37° C., 30 min): 100%
Percent Remaining 60 min [1, 10]: 91.9%
Percent Remaining 120 min [1, 11]: 83.5%
Hydrolysis to treprostinil, % Area, t = 1 week ([2]; pH 6, 40 C.): 0.00 % Area
Hydrolysis to treprostinil, % Area, t = 2 weeks ([2]; pH 6, 40 C.): 0.00 % Area
Hydrolysis to treprostinil, % Area, t = 3 weeks ([2]; pH 6, 40 C.): 0.00 % Area
Hydrolysis to treprostinil, % Area, t = 1 week ([2]; pH 7, 40 C.): 0.00 % Area
Hydrolysis to treprostinil, % Area, t = 2 weeks ([2]; pH 7, 40 C.): 0.00 % Area
Hydrolysis to treprostinil, % Area, t = 3 weeks ([2]; pH 7, 40 C.): 0.00 % Area
Hydrolysis to treprostinil, % Area, t = 1 week ([2]; pH 8, 40 C.): 0.00 % Area
Hydrolysis to treprostinil, % Area, t = 2 weeks ([2]; pH 8, 40 C.): 0.00 % Area
Hydrolysis to treprostinil, % Area, t = 3 weeks ([2]; pH 8, 40 C.): 0.38 % Area
AUC [3]: 56.21 µmol·min/L

Compound: treprostinil diacetate [Prodrug LXXII]
Half-life ([4]; 1 μM, 37° C.): >2 h
Percent Remaining 0 min ([4]; 1 μM, 37° C., 0 min): 100%
Percent Remaining 15 min ([4]; 1 μM, 37° C., 15 min): 106%
Percent Remaining 60 min ([4]; 1 μM, 37° C., 60 min): 102%
Percent Remaining 120 min ([4]; 1 μM, 37° C., 120 min): 86.5%
Formation of Treprostinil, Concentration 0 min ([4]; prodrug dosed 1 μM, 0 min): 0 µM
Formation of Treprostinil, Concentration 15 min ([4]; prodrug dosed 1 μM, 15 min): 0 µM
Formation of Treprostinil, Concentration 30 min ([4]; prodrug dosed 1 μM, 30 min): 0 µM
Formation of Treprostinil, Concentration 60 min ([4]; prodrug dosed 1 μM, 60 min): 0 µM
Formation of Treprostinil, Concentration 120 min ([4]; prodrug dosed 1 μM, 120 min): 0 µM
Half-life ([5]; 1 μM, 37° C.): >2 h
Percent Remaining 0 min ([5]; 1 μM, 37° C., 0 min): 100%
Percent Remaining 15 min ([5]; 1 μM, 37° C., 15 min): 107%
Percent Remaining 60 min ([5]; 1 μM, 37° C., 60 min): 83.6%
Percent Remaining 120 min ([5]; 1 μM, 37° C., 120 min): 79.7%
Formation of Treprostinil, Concentration 0 min ([5]; prodrug dosed 1 μM, 0 min): 0 µM
Formation of Treprostinil, Concentration 15 min ([5]; prodrug dosed 1 μM, 15 min): 0 µM
Formation of Treprostinil, Concentration 30 min ([5]; prodrug dosed 1 μM, 30 min): 0 µM
Formation of Treprostinil, Concentration 60 min ([5]; prodrug dosed 1 μM, 60 min): 0.00595 µM
Formation of Treprostinil, Concentration 120 min ([5]; prodrug dosed 1 μM, 120 min): 0.0151 µM
Half-life ([6]; 1 μM, 37° C.): >2 h
Percent Remaining 0 min ([6]; 1 μM, 37° C., 0 min): 100%
Percent Remaining 15 min ([6]; 1 μM, 37° C., 15 min): 96.7%
Percent Remaining 60 min ([6]; 1 μM, 37° C., 60 min): 107%
Percent Remaining 120 min ([6]; 1 μM, 37° C., 120 min): 82.9%
Formation of Treprostinil, Concentration 0 min ([6]; prodrug dosed 1 μM, 0 min): 0 µM
Formation of Treprostinil, Concentration 15 min ([6]; prodrug dosed 1 μM, 15 min): 0 µM
Formation of Treprostinil, Concentration 30 min ([6]; prodrug dosed 1 μM, 30 min): 0 µM
Formation of Treprostinil, Concentration 60 min ([6]; prodrug dosed 1 μM, 60 min): 0 µM
Formation of Treprostinil, Concentration 120 min ([6]; prodrug dosed 1 μM, 120 min): 0 µM
Half-life [1, 7]: >2 h
Percent Remaining 0 min [1, 8]: 100%
Percent Remaining 15 min [1, 9]: 111%
Percent Remaining 60 min [1, 10]: 108%
Percent Remaining 120 min [1, 11]: 109%
Formation of Treprostinil, Concentration 0 min ([1]; SIF, prodrug dosed 1 μM, 0 min): 0 µM
Formation of Treprostinil, Concentration 15 min ([1]; SIF, prodrug dosed 1 μM, 15 min): 0 µM
Formation of Treprostinil, Concentration 30 min ([1]; SIF, prodrug dosed 1 μM, 30 min): 0 µM
Formation of Treprostinil, Concentration 60 min ([1]; SIF, prodrug dosed 1 μM, 60 min): 0 µM
Formation of Treprostinil, Concentration 120 min ([1]; SIF, prodrug dosed 1 μM, 120 min): 0.0126 µM
Hydrolysis to treprostinil, % Area, t = 1 week ([2]; pH 6, 40 C.): 0.00 % Area
Hydrolysis to treprostinil, % Area, t = 2 weeks ([2]; pH 6, 40 C.): 0.00 % Area
Hydrolysis to treprostinil, % Area, t = 3 weeks ([2]; pH 6, 40 C.): 0.00 % Area
Hydrolysis to treprostinil, % Area, t = 1 week ([2]; pH 7, 40 C.): 0.00 % Area
Hydrolysis to treprostinil, % Area, t = 2 weeks ([2]; pH 7, 40 C.): 0.00 % Area
Hydrolysis to treprostinil, % Area, t = 3 weeks ([2]; pH 7, 40 C.): 0.00 % Area
Hydrolysis to treprostinil, % Area, t = 1 week ([2]; pH 8, 40 C.): 0.00 % Area
Hydrolysis to treprostinil, % Area, t = 2 weeks ([2]; pH 8, 40 C.): 0.00 % Area
Hydrolysis to treprostinil, % Area, t = 3 weeks ([2]; pH 8, 40 C.): 0.00 % Area
AUC [3]: 60.91 µmol·min/L

Compound: CCCCCC(CCC1C(O)CC2Cc3c(cccc3OCC(=O)O)CC21)OC(=O)CC (stereo not shown) [Prodrug LV]
EP1 Relative to Tre (PGE2 receptor 1 (EP1)): 122x*

Other lines, results leading:

EP1 Relative to Tre (PGE2 receptor 1 (EP1)): 20x*
Compound: CCCCCC(CCC1C(O)CC2Cc3c(cccc3OCC(=O)O)CC21)OC(C)=O (stereo not shown) [Prodrug XLIII]

EP1 Relative to Tre (PGE2 receptor 1 (EP1)): 5x
EP1 Relative to Tre (PGE2 receptor 1 (EP1); listed as Prodrug VI repeat): 42x
Compound: CCCCCC(CCC1C(O)CC2Cc3c(cccc3OCC(=O)O)CC21)OP(=O)(O)O (stereo not shown) [Prodrug VI]
